Earlier results, collected in US20110077278A1, “Antifungal compositions and methods” (Troy Corporation, priority 2009, published 2011).

Columns and labels:
[1] = in metal working fluids; BBIT compared with IPBC; reported by US 6,861,395
[2] = tested on: certain fungi; conditions: BBIT in the presence of sodium omadine and certain fungi; US 6,861,395

## CCCCn1sc2ccccc2c1=O [BBIT, 2-n-butyl-1,2-benzisothiazolin-3-one]
[1]
  stability to high temperature storage: considerably more stable to high temperature storage than IPBC
[2]
  synergy: exhibits synergy in the presence of sodium omadine and certain fungi
